# From US20090069384A1, “THIENOPYRROLES USEFUL IN THE TREATMENT OF INFLAMMATION” (BIOLIPOX AB, priority 2005, published 2009)
# Biological target: T1, mPGES-1 (Homo sapiens, UniProt O14684)
# T1 construct: made in house; host or cells: E. coli (membrane fraction)
# T1 sequence (O14684 1-152): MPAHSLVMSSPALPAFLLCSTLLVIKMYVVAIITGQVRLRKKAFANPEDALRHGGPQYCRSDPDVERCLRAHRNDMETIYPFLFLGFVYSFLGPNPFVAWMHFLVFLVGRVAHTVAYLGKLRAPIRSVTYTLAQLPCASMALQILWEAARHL
# Experiment: mPGES-1 inhibition assay (conversion of PGH2 to PGE2, HPLC analysis)
# Type: biochemical
# Conditions: mPGES-1 expressed in E. coli, membrane fraction; room temperature; PGH2 substrate, 60 seconds
# Protocol: In the assay mPGES-1 catalyses the reaction where the substrate PGH2 is converted to PGE2. mPGES-1 is expressed in E. coli and the membrane fraction is dissolved in 20 mM NaPi-buffer pH 8.0 and stored at −80° C. […] The stop solution consists of H2O/MeCN (7/3), containing FeCl2 (25 mM) and HCl (0.15 M). The assay is performed at room temperature in 96-well plates.
# The following is added chronologically to each well: • 1. 100 uL mPGES-1 in KPi-buffer with glutathione. Total protein concentration: 0.02 mg/mL. • 2. 1 μL inhibitor in DMSO. Incubation of the plate at room temperature for 25 minutes. • 3. 4 μL of a 0.25 mM PGH2 solution. Incubation of the plate at room temperature for 60 seconds. • 4. 100 μL stop solution. • 180 μL per sample is analyzed with HPLC.
row,IC50,SMILES
1,0.39 µM,"CC(C)(C)c1ccc(-c2cc3c(s2)c(-c2ccc(C(C)(C)C)cc2)c(C(=O)O)n3Cc2cccc(Cl)c2)cc1 [Example 2, 2,6-Bis-(4-tert-butylphenyl)-4-(3-chlorobenzyl)thieno[3,2-b]pyrrole-5-carboxylic Acid]"
2,1.3 µM,"Cc1ccc(-c2cc3c(s2)c(I)c(C(=O)O)n3Cc2cccc(Cl)c2)s1 [Example 4, 4-(3-Chlorobenzyl)-6-iodo-2-(5-methylthien-2-yl)thieno[3,2-b]pyrrole-5-carboxylic Acid]"
3,5.1 µM,"Cc1ccc(-n2c(C(=O)O)cc3sc(-c4ccc(OC(C)C)cc4)cc32)cc1[N+](=O)[O-] [Example 28, 2-(4-Isopropoxyphenyl)-4-(4-methyl-3-nitrophenyl)thieno[3,2-b]pyrrole-5-carboxylic Acid]"
4,4.7 µM,"CC(C)Oc1ccc(-c2cc3cc(C(=O)O)n(Cc4cccc(Cl)c4)c3s2)cc1 [Example 35, 6-(3-Chlorobenzyl)-2-(4-isopropoxyphenyl)-6H-thieno[2,3-b]pyrrole-5-carboxylic Acid]"
